The results in this text go back to ChEMBL document CHEMBL5465560, “Selectivity Literature for EUbOPEN Chemogenomic Library” (2024).

Test [1] concerns the target T1, Serine/threonine-protein kinase BRSK1 (Homo sapiens) (UniProt Q8TDC3).
T1 sequence (whole entry): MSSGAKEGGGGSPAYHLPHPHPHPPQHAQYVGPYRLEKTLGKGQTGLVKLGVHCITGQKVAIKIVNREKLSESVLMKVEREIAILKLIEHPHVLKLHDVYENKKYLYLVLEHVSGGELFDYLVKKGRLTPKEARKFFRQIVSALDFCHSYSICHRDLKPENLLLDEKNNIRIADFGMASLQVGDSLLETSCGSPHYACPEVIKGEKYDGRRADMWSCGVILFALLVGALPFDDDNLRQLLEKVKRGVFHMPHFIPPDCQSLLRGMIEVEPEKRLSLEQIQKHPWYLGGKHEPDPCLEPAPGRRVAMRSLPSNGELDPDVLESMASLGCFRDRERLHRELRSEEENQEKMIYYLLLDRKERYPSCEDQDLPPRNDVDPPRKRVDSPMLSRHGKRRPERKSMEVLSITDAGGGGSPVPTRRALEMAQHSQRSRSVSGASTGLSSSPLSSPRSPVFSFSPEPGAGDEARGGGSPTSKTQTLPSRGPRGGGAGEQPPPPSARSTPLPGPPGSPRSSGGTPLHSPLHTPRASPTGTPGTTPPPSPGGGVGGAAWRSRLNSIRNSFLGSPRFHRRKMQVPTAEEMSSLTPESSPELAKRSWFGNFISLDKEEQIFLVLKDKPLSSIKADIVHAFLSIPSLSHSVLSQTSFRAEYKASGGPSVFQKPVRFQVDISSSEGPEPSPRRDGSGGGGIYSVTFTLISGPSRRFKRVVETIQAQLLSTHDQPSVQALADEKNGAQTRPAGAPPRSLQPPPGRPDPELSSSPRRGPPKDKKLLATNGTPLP
Put plainly: Selectivity interaction (Kinase panel (Z-LYTE Assay)) EUB0001632a BRSK1. Conditions: at 10 µM.

Test [2] concerns the target Dual specificity protein kinase CLK1 (Homo sapiens, UniProt P49759). Put plainly: Selectivity interaction (KinomeScan (DiscoverX)) EUB0000666a CLK1. The conditions noted are these: at 10 µM.
The target of test [3] is Macrophage-stimulating protein receptor (Homo sapiens, UniProt Q04912). Put plainly: Selectivity interaction (KinomeScan (DiscoverX)) EUB0000045b MST1R.
Chain of Macrophage-stimulating protein receptor (Q04912 25-304 limits assumed): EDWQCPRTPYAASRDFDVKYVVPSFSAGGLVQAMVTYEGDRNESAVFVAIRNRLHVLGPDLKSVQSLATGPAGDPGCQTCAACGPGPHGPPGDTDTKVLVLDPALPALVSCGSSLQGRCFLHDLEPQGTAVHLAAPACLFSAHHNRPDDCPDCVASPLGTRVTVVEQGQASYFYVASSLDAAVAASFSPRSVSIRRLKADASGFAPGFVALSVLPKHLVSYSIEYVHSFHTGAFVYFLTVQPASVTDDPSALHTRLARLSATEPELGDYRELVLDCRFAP
Chain of Macrophage-stimulating protein receptor (Q04912 310-1400 limits assumed): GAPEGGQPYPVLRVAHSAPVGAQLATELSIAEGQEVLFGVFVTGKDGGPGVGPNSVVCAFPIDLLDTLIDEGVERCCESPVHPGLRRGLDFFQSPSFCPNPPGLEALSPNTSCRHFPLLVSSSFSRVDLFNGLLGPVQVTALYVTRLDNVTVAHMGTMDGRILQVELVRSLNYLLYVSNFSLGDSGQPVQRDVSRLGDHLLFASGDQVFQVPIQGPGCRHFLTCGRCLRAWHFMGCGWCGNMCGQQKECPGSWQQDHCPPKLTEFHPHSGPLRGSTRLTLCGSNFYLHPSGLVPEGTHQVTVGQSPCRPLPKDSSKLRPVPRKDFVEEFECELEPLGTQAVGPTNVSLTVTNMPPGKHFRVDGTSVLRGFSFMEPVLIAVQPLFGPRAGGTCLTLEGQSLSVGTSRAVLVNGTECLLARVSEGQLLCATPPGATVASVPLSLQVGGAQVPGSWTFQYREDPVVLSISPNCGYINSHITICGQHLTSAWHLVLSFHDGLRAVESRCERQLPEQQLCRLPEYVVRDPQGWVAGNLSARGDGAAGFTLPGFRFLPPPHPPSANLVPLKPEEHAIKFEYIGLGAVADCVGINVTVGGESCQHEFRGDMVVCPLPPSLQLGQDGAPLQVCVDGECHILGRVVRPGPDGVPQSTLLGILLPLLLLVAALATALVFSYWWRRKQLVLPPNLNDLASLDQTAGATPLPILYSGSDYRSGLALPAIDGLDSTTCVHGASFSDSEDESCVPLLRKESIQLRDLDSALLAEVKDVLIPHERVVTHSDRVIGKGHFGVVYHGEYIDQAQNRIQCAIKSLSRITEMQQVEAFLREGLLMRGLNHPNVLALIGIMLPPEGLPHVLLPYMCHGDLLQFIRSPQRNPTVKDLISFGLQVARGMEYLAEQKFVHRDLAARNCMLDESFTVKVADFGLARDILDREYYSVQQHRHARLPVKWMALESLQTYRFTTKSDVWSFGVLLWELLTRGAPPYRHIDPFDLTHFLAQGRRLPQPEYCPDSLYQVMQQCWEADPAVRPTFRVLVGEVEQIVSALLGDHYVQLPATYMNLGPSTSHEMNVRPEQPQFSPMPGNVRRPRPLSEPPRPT
For test [4], the target named is T2, Serine/threonine-protein kinase 17A (Homo sapiens) (UniProt Q9UEE5).
T2 sequence (whole entry): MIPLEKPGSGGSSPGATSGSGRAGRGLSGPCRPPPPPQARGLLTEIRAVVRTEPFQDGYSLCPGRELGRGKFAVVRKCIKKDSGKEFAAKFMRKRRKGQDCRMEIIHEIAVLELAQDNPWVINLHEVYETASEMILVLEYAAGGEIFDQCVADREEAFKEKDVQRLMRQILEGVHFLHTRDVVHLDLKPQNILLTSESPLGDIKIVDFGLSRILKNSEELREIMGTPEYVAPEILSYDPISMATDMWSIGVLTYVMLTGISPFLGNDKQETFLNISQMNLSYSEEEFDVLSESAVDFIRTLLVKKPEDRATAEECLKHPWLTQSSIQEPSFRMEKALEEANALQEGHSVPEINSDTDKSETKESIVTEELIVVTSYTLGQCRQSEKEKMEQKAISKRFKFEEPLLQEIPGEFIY
Put plainly: Selectivity interaction (ProQinase) EUB0000171b STK17A.

The target of test [5] is Receptor-type tyrosine-protein kinase FLT3 (Homo sapiens) (UniProt P36888). Put plainly: Selectivity interaction (Ambit KINOMEscan and KiNATiv profiling in Jurkat cells) EUB0000090b FLT3. The format is cell-based. Conditions: at 1 µM.
Chain of Receptor-type tyrosine-protein kinase FLT3 (Homo sapiens) (P36888 whole entry): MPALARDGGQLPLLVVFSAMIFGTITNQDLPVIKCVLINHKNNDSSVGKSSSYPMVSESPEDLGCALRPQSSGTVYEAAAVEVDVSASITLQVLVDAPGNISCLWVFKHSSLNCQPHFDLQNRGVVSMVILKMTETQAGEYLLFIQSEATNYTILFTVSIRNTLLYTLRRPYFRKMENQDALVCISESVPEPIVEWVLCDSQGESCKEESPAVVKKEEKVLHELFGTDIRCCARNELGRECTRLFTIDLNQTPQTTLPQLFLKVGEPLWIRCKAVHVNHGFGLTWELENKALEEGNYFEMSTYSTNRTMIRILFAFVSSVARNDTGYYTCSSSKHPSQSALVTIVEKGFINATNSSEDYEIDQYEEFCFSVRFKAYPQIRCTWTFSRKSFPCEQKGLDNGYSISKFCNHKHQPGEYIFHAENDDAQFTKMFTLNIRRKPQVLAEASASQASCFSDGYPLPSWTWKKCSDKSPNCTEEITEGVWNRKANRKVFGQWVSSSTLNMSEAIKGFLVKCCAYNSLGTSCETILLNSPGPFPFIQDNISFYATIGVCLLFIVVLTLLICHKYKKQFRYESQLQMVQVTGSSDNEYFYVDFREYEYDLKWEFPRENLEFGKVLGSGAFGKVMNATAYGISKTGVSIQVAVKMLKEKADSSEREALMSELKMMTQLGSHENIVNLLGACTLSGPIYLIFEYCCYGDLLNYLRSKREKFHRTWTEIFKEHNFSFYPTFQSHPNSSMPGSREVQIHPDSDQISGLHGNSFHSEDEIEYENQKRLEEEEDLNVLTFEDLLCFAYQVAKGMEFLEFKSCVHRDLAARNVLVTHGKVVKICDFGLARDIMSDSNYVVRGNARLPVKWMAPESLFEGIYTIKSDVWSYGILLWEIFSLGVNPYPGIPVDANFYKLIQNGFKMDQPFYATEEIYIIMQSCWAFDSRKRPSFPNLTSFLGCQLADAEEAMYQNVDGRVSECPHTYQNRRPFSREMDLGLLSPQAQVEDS
In test [6] the target is Wee1-like protein kinase (Homo sapiens) (UniProt P30291). Put plainly: Selectivity interaction (KinomeScan (DiscoverX)) EUB0001049a WEE1. The conditions noted are these: at 1 µM.
Chain of Wee1-like protein kinase (Homo sapiens) (P30291 whole entry, looked up): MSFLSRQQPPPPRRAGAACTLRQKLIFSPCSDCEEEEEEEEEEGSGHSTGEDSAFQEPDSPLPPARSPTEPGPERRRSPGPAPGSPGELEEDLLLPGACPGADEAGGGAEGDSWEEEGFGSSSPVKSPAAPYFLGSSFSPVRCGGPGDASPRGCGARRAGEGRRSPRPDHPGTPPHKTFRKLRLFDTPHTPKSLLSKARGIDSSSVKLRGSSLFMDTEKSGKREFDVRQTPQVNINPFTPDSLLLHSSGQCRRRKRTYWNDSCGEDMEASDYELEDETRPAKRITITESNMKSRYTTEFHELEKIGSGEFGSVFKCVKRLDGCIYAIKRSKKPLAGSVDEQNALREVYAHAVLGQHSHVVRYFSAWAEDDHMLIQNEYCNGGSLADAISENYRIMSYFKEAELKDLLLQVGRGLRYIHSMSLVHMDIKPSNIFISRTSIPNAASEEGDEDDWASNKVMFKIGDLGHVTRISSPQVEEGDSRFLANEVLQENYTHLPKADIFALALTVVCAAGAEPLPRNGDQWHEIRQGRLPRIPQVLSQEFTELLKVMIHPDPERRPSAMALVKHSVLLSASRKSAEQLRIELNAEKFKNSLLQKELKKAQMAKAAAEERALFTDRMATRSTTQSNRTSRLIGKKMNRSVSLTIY
Test [7] deals with Cannabinoid receptor 2 (Homo sapiens) (UniProt P34972). Put plainly: Selectivity interaction (Panel of kinases, GPCRs, ion channels and transporters (enzymatic assay)) EUB0000223bCl CNR2.
Chain of Cannabinoid receptor 2 (Homo sapiens) (P34972 whole entry): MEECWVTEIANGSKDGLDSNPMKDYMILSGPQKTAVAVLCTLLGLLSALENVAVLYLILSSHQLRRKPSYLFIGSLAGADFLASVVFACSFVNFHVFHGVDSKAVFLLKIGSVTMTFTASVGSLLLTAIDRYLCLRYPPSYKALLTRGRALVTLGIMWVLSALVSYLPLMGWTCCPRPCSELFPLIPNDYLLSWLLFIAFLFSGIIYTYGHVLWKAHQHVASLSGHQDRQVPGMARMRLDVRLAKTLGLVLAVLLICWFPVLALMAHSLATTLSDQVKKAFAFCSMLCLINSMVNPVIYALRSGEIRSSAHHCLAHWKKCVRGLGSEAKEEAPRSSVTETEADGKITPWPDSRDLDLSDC
For test [8], the target named is T3, Serine/threonine-protein kinase Nek5 (Homo sapiens) (UniProt Q6P3R8).
T3 sequence (whole entry): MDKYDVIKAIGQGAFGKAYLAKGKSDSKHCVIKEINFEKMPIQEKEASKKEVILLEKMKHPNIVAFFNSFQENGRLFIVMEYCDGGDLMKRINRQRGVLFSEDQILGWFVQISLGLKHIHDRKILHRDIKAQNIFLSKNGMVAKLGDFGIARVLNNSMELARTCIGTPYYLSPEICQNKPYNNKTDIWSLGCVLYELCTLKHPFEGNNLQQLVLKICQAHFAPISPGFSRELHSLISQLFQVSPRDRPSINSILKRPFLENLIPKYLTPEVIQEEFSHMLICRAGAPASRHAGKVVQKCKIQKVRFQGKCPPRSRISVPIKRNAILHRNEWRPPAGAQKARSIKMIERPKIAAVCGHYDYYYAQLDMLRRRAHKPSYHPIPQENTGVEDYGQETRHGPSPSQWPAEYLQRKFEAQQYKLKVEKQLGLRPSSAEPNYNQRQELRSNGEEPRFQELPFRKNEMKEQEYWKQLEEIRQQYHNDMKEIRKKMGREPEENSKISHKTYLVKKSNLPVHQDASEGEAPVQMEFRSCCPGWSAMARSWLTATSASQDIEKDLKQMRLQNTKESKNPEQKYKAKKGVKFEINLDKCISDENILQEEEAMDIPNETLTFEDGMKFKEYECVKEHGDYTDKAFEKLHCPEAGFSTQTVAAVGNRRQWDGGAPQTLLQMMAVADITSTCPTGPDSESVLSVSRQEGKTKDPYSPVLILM
Put plainly: Selectivity interaction (KinomeScan (DiscoverX)) EUB0000655a NEK5. Conditions: at 10 µM.

Chain of Dual specificity protein kinase CLK1 (P49759 whole entry, looked up): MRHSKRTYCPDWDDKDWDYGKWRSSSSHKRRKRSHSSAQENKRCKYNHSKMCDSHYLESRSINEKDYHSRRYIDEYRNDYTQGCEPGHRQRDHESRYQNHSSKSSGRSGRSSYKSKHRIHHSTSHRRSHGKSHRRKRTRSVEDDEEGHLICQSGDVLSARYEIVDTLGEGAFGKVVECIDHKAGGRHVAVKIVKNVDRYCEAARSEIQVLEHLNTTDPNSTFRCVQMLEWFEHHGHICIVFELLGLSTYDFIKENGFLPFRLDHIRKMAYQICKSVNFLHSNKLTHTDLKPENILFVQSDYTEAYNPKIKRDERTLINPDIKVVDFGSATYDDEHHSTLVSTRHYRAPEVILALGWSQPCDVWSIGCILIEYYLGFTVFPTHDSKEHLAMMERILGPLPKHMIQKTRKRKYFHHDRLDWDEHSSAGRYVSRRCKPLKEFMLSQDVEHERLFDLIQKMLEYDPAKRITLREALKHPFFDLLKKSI

In turn, `Cn1cc(-n2cnc3c(NCc4nc5cc(Cl)c(Cl)cc5[nH]4)nc(N4CCOCC4)nc32)cn1` gave a % of control in test [1] of 11.9%.
In test [2], `O=C(NOC[C@H](O)CO)c1ccc(F)c(F)c1Nc1ccc(I)cc1F` gave a % of control of 95%.
With `C=CC(=O)Nc1cc(-n2c(=O)ccc3cnc4ccc(-c5ccc(NS(C)(=O)=O)cc5)cc4c32)ccc1C`, the % of control in test [3] (at 1 µM) and in test [3] (at 10 µM) was 100% in each case.
As for `C=CC(=O)Nc1cccc(C(=O)Nc2ccc(Nc3cc(-c4[nH]c(SC)nc4C)ccn3)cc2)c1`, the % of control in test [4] (at 1 µM) was determined as 78%; in test [4] (at 5 µM), 35%.
In test [5], `CN(C)C/C=C/C(=O)Nc1ccc(C(=O)N2CCCC(Nc3ncc(Cl)c(-c4c[nH]c5ccccc45)n3)C2)cc1` (stereo not given) gave a % of control of 95%.
Take `COc1cc(Nc2nc(C)cc(-c3cnn4nc(OC)ccc34)n2)cc(C(F)(F)F)c1`: in test [6], the % of control was found to be 95%.
For `COc1cc(C(=O)N2CC[C@@H](O)[C@@H](N)C2)cc2nc(-c3cc4ccccc4n3CC3CC3)n(C)c12`, the pXC50 in test [7] was below 4.5 M.
As to `CN(C)CCOc1ccc(-c2nc(-c3ccncc3)c(-c3ccc4c(c3)CC/C4=N\O)[nH]2)cc1`, the % of control in test [8] came out at 74%.
